In US5952328A, “Benzothiazo and related heterocyclic group-containing cysteine and serine protease inhibitors” (Cephalon, Inc., priority 1997, dated 1999):
pIC50: −log10 of the molar value.

Biological target: T1, Calpain I (Homo sapiens, UniProt P07384)
T1 construct: made in house
T1 sequence (P07384 1-714): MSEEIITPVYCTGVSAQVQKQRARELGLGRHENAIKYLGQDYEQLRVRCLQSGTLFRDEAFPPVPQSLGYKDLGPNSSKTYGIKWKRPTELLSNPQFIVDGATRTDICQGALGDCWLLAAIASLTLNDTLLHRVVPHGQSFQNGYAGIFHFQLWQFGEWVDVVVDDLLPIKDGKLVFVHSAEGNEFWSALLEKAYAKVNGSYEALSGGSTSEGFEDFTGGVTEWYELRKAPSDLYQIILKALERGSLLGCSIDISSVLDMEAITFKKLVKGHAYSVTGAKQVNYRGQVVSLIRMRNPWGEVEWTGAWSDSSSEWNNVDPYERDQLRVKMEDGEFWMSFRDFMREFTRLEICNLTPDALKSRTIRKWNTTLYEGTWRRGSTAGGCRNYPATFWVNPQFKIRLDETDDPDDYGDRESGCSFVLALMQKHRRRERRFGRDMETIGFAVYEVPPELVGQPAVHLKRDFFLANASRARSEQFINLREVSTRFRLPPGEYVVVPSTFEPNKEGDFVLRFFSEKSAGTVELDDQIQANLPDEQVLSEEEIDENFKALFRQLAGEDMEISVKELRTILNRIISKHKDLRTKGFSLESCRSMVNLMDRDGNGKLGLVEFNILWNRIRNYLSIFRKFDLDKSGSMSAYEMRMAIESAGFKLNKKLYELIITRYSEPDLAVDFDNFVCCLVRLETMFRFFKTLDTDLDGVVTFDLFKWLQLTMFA
T1 sequence (P04632 1-268 partner): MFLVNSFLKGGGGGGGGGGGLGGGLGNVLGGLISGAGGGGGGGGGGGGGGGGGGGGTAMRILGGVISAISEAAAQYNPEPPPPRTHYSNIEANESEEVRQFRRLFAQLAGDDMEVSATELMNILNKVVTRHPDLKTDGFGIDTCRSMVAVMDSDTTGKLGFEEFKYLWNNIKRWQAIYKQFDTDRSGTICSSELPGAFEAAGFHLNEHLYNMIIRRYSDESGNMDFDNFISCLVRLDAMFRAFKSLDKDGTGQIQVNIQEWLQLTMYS
Test: Inhibition of calpain I activity (Succ-Leu-Tyr-MNA substrate hydrolysis, fluorescence)
Assay type: biochemical
Conditions: Example 187, in text; bisulfite addition compound; read-out: IC50 (calpain)
Protocol: To evaluate inhibitory activity, stock solutions (40 times concentrated) of each compound to be tested were prepared in 100% anhydrous DMSO and […] of each inhibitor preparation were aliquoted into each of three wells of a 96-well plate. Calpain I, prepared by a modification of the method of W. J. Lee et al. (Biochem. […] To start the reaction, […] of 50 mM CaCl2 in assay buffer was added to each of the wells of the plate, excepting three, which were used as background signal baseline controls. Substrate hydrolysis was monitored every 5 minutes for a total of 30 minutes using a Fluoroskan II fluorescence plate reader. […] Inhibition of calpain I activity was calculated as the percent decrease in the rate of substrate hydrolysis in the presence of inhibitor relative to the rate in its absence. Comparison between the inhibited and control rates was made within the linear range for substrate hydrolysis. For screening, compounds were tested at […]. […] The results were plotted as percent inhibition versus log inhibitor concentration, and the IC50 was calculated from linear regression of the data.

pIC50: 8.10
Compound: CCN1C(C(=O)N[C@@H](Cc2ccccc2)C(O)S(=O)(=O)O)Cc2cc3c(cc2S1(=O)=O)OCCO3 (stereo partly drawn) [Example 187, N-(3,4-Dihydro-6,7-ethylenedioxy-2-ethyl-2H-1,2-benzothiazine-3-carbonyl)-L-phenylalaninal 1,1-dioxide, bisulfite addition compound]
